IC50 data for 28 compounds are collected here from patent publication US11384055B2 (BIOMARIN PHARMACEUTICAL INC., priority 2017, dated 2022).

For this test, the target named is T1, Human GO (Homo sapiens, UniProt Q9UJM8).
T1 construct: purchased Novus Biologicals NBP1-72412
T1 sequence (Q9UJM8 1-370): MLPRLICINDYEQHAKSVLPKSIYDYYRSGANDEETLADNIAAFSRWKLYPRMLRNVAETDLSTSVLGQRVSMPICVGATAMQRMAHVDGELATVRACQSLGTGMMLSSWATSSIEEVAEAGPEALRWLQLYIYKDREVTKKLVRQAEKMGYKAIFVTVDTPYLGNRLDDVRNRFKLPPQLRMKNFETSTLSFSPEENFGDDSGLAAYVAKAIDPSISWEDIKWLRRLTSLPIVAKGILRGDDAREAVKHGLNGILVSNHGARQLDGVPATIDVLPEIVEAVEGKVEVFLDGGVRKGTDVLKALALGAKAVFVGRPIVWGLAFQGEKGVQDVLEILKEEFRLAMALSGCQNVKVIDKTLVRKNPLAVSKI
The test can be described thus: GO enzymatic assay (coupled fluorescence/HRP assay, glycolate substrate). The test is classed as biochemical. Conditions: Table 2; read-out: Range (range of IC50 values calculated from the enzymatic assays). The method in brief: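 Coupled HRP/fluorescence read-out of glycolate oxidation by human GO in 50 mM potassium phosphate buffer (pH 7). Inhibitors added across a concentration range.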

In general, IC50 refers to the concentration needed to halve the response being measured. Take `O=C(O)c1[nH]nnc1CN(Cc1ccc(OC(F)(F)F)cc1)c1ccc(Cl)cc1` [Compound 195, 4-(((4-chlorophenyl)(4-(trifluoromethoxy)benzyl)amino)methyl)-1H-1,2,3-triazole-5-carboxylic acid]: the IC50 is 100 to 1000 nM.
The figure for `O=C(O)c1[nH]nnc1CN(Cc1ccccc1)c1ccc(-c2ccc(OC(F)(F)F)cc2)cc1` [Compound 196, 4-((benzyl(4′-(trifluoromethoxy)-[1,1′-biphenyl]-4-yl)amino)methyl)-1H-1,2,3-triazole-5-carboxylic acid 2,2,2-trifluoroacetate] is 100 to 1000 nM; for `O=C(O)c1[nH]nnc1C(F)(F)c1ccc(-c2ccc(Cl)cc2)c(Cl)c1` [Compound 197, 4-((2,4′-dichloro-[1,1′-biphenyl]-4-yl)difluoromethyl)-1H-1,2,3-triazole-5-carboxylic acid 2,2,2-trifluoroacetate] it is less than 100 nM.
The figure for `O=C(O)c1[nH]nnc1C(F)(F)c1ccc(-c2ccc(OC(F)(F)F)cc2)cc1` [Compound 198, 4-(difluoro(4′-(trifluoromethoxy)-[1,1′-biphenyl]-4-yl)methyl)-1H-1,2,3-triazole-5-carboxylic acid 2,2,2-trifluoroacetate] is less than 100 nM; for `O=C(O)c1[nH]nnc1C(F)(F)c1ccc2cc(Cl)ccc2c1` [Compound 199, 4-((6-chloronaphthalen-2-yl)difluoromethyl)-1H-1,2,3-triazole-5-carboxylic acid] it is less than 100 nM; for `O=C(O)c1[nH]nnc1C(F)(F)c1ccc(-c2ccc(Cl)cc2)cc1` [Compound 200, 4-((4′-chloro-[1,1′-biphenyl]-4-yl)difluoromethyl)-1H-1,2,3-triazole-5-carboxylic acid 2,2,2-trifluoroacetate] it is less than 100 nM.
The figure for `O=C(O)c1[nH]nnc1C(F)(F)c1ccc(-c2ccc(Cl)c(Cl)c2)cc1` [Compound 201, 4-((3′,4′-dichloro-[1,1′-biphenyl]-4-yl)difluoromethyl)-1H-1,2,3-triazole-5-carboxylic acid 2,2,2-trifluoroacetate] is less than 100 nM.
For `O=C(O)c1[nH]nnc1-c1ccc(-c2ccc(Cl)cc2)c(OC(F)(F)F)c1` [Compound 203, 4-(4′-chloro-2-(trifluoromethoxy)-[1,1′-biphenyl]-4-yl)-1H-1,2,3-triazole-5-carboxylic acid], the 50% inhibitory concentration (IC50) is less than 100 nM.
In the case of `CC(C)C(=O)OCOC(=O)c1[nH]nnc1-c1ccc2cc(Cl)ccc2n1` [Compound 204, (isobutyryloxy)methyl 4-(6-chloroquinolin-2-yl)-1H-1,2,3-triazole-5-carboxylate], the IC50 was 1000 to 10000 nM.
The value for `CC(C)N1CCCc2cc(-c3nn[nH]c3C(=O)O)ccc21` [Compound 206, 4-(1-isopropyl-1,2,3,4-tetrahydroquinolin-6-yl)-1H-1,2,3-triazole-5-carboxylic acid 2,2,2-trifluoroacetate] was 1000 to 10000 nM.
Regarding `O=C(O)c1[nH]nnc1-c1cc(Cl)c(Cl)cn1` [Compound 207, 4-(4,5-dichloropyridin-2-yl)-1H-1,2,3-triazole-5-carboxylic acid], the half-inhibitory concentration (IC50) was 100 to 1000 nM.
The value for `O=C(O)c1[nH]nnc1-c1ccc(Cl)cn1` [Compound 208, 4-(5-chloropyridin-2-yl)-1H-1,2,3-triazole-5-carboxylic acid 2,2,2-trifluoroacetate] was 100 to 1000 nM; that for `CC(=O)NCCOc1ccc(-c2nn[nH]c2C(=O)O)cc1` [Compound 209, 4-(4-(2-acetamidoethoxy)phenyl)-1H-1,2,3-triazole-5-carboxylic acid] was 1000 to 10000 nM.
The value for `O=C(O)c1[nH]nnc1-c1cc2ccc(F)cc2cn1` [Compound 210, 4-(7-fluoroisoquinolin-3-yl)-1H-1,2,3-triazole-5-carboxylic acid 2,2,2-trifluoroacetate] was 100 to 1000 nM.
On to `O=C(O)c1[nH]nnc1-c1cc2cc(OC(F)(F)F)ccc2cn1` [Compound 211, 4-(6-(trifluoromethoxy)isoquinolin-3-yl)-1H-1,2,3-triazole-carboxylic acid], for which the IC50 was 1000 to 10000 nM.
Take `O=C(O)c1[nH]nnc1-c1ccc2c(n1)CCCC2` [Compound 212, 4-(5,6,7,8-tetrahydroquinolin-2-yl)-1H-1,2,3-triazole-5-carboxylic acid]: the concentration for half-maximal inhibition (IC50) was 1000 to 10000 nM.
The value for `O=C(O)c1[nH]nnc1-c1cc2cc(F)ccc2cn1` [Compound 213, 4-(6-fluoroisoquinolin-3-yl)-1H-1,2,3-triazole-5-carboxylic acid 2,2,2-trifluoroacetate] was 1000 to 10000 nM; that for `O=C(O)c1[nH]nnc1-c1cc2ccc(OC(F)(F)F)cc2cn1` [Compound 214, 4-(7-(trifluoromethoxy)isoquinolin-3-yl)-1H-1,2,3-triazole-5-carboxylic acid] was 100 to 1000 nM; that for `O=C(O)c1[nH]nnc1-c1cc2ccc(C(F)(F)F)cc2cn1` [Compound 215, 4-(7-(trifluoromethyl)isoquinolin-3-yl)-1H-1,2,3-triazole-5-carboxylic acid] was 100 to 1000 nM.
For `O=C(O)c1[nH]nnc1-c1cnc2cc(Cl)ccc2c1` [Compound 216, 4-(7-chloroquinolin-3-yl)-1H-1,2,3-triazole-5-carboxylic acid 2,2,2-trifluoroacetate], the IC50 is less than 100 nM.
As to `O=C(O)c1[nH]nnc1-c1cc(Cl)cc(OCC2CC2)c1` [Compound 217, 4-(3-chloro-5-(cyclopropylmethoxy)phenyl)-1H-1,2,3-triazole-5-carboxylic acid 2,2,2-trifluoroacetate], the IC50 is less than 100 nM.
For `O=C(O)c1[nH]nnc1-c1ccc(Cl)c(OCC2CC2)c1` [Compound 218, 4-(4-chloro-3-(cyclopropylmethoxy)phenyl)-1H-1,2,3-triazole-5-carboxylic acid], the IC50 is 100 to 1000 nM.
Turning to `O=C(O)c1[nH]nnc1-c1cc(OCC2CC2)ccc1Cl` [Compound 219, 4-(2-chloro-5-(cyclopropylmethoxy)phenyl)-1H-1,2,3-triazole-5-carboxylic acid], the half-inhibitory concentration (IC50) is 1000 to 10000 nM.
The value for `O=C(O)c1[nH]nnc1Oc1ccc(-c2cccc(N3CCCCC3)c2)cc1` [Compound 220, 4-((3′-(piperidin-1-yl)-[1,1′-biphenyl]-4-yl)oxy)-1H-1,2,3-triazole-5-carboxylic acid 2,2,2-trifluoroacetate] was less than 100 nM.
Turning to `O=C(O)c1[nH]nnc1Oc1ccc(-c2ccc(N3CCCCC3)cc2)cc1` [Compound 221, 4-((4′-(piperidin-1-yl)-[1,1′-biphenyl]-4-yl)oxy)-1H-1,2,3-triazole-5-carboxylic acid 2,2,2-trifluoroacetate], the IC50 is less than 100 nM.
The value for `CN1CCCc2cc(-c3ccc(Oc4nn[nH]c4C(=O)O)cc3)ccc21` [Compound 222, 4-(4-(1-methyl-1,2,3,4-tetrahydroquinolin-6-yl)phenoxy)-1H-1,2,3-triazole-5-carboxylic acid] was less than 100 nM.
The value for `O=C(O)c1[nH]nnc1Oc1ccc(-c2cccc3c2CCCC3)cc1` [Compound 223, 4-(4-(5,6,7,8-tetrahydronaphthalen-1-yl)phenoxy)-1H-1,2,3-triazole-5-carboxylic acid 2,2,2-trifluoroacetate] was less than 100 nM; that for `O=C(O)c1[nH]nnc1Oc1ccc(-c2cccc(CN3CCCCC3=O)c2)cc1` [Compound 224, 4-((3′-((2-oxopiperidin-1-yl)methyl)-[1,1′-biphenyl]-4-yl)oxy)-1H-1,2,3-triazole-5-carboxylic acid] was less than 100 nM.
